Activity calls are given as the source filed them.
Columns and labels:
[1] = target: Ubiquitin carboxyl-terminal hydrolase BAP1 (Homo sapiens, UniProt Q92560); assay: inhibition of BAP1 ubiquitin hydrolase activity – biochemical, dose response (AID 714); type: functional
[2] = Plasmodium falciparum Dd2 Sybr green parasite growth Measured in Cell-Based and Microorganism Combination System Using Plate Reader - 2153-01_Inhibitor_Dose_DryPowder_Activity_Set3.; type: functional
Phospholipase D2 = Phospholipase D2 (Homo sapiens, UniProt O14939); assay: PLD2 Cellular Concentration Response Study.; type: functional
Phospholipase D1 = Phospholipase D1 (Homo sapiens, UniProt Q13393); assay: PLD1 Cellular Concentration Response Study.; type: functional
[3] = reduction of Shn3 3'UTR-driven luciferase in osteoblasts – cell-based, Clone20 osteoblasts, firefly luciferase, cherry-picked, dose response (AID 624132); type: functional;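 further: firefly luciferase luminescence from reporter carrying the Shn3 3'UTR in osteoblasts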
A-375 = assay: MITF: Counter assay: A375 proliferation Measured in Cell-Based System Using Plate Reader - 2084-03_Inhibitor_Dose_DryPowder_Activity. [Related pubchem assays (depositor defined):AID488944]; type: functional; conditions: Homo sapiens
[4] = non-specific 3'UTR reporter inhibition in Clone20-Shn3RL – cell-based, Renilla luciferase, cherry-picked, counter-screen for Shn3 inhibitor project, dose response (AID 624133); type: functional
[5] = viability loss in Vero cells – cytotoxicity control for Vif-APOBEC3G degradation inhibitor project, dose response (AID 1117358); type: functional; conditions: Vero
[6] = loss of viability in HepG2 cells – cell-based, CellTiter-Glo, cherry-picked, cytotoxicity control for Shn3 inhibitor project, dose response (AID 624134); type: functional
[7] = target: T1, Microphthalmia-associated transcription factor (Homo sapiens, UniProt O75030); assay: reducers of TRPM1 reporter luminescence, concentration series – cell-based, SK-MEL-5, cherry-picked, set 3, MITF inhibitor project, dose response (AID 493073); type: functional;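 further: SK-MEL-5 melanoma cells with luciferase driven by the MITF target TRPM1 promoter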
T1 sequence (O75030 whole entry): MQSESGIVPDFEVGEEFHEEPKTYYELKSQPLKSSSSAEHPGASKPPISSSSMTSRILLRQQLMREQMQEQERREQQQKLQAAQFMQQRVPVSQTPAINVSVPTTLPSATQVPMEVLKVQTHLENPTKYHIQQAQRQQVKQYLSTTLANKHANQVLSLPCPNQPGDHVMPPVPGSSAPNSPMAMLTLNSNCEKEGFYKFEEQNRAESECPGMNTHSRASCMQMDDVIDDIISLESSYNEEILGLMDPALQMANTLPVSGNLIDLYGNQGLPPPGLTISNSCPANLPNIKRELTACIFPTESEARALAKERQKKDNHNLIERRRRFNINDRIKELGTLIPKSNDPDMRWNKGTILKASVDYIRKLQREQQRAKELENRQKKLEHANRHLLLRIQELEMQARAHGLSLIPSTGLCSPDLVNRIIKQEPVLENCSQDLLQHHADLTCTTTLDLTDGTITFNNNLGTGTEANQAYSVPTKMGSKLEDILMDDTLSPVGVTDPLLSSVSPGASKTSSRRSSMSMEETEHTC

[8] = target: T2, Aryl hydrocarbon receptor (Homo sapiens, UniProt P35869); assay: Luminescence-based cell-based high throughput dose response assay for activators of the Aryl Hydrocarbon Receptor (AHR). [Related pubchem assays: 2796 (Primary screen (AHR activators in singlicate)), 2845 (Confirmation screen (AHR activators in triplicate)), 434939 (Counterscreen (PXR activators in triplicate)), 2804 (Summary (AHR activators))]; type: ADME
T2 sequence (P35869 whole entry): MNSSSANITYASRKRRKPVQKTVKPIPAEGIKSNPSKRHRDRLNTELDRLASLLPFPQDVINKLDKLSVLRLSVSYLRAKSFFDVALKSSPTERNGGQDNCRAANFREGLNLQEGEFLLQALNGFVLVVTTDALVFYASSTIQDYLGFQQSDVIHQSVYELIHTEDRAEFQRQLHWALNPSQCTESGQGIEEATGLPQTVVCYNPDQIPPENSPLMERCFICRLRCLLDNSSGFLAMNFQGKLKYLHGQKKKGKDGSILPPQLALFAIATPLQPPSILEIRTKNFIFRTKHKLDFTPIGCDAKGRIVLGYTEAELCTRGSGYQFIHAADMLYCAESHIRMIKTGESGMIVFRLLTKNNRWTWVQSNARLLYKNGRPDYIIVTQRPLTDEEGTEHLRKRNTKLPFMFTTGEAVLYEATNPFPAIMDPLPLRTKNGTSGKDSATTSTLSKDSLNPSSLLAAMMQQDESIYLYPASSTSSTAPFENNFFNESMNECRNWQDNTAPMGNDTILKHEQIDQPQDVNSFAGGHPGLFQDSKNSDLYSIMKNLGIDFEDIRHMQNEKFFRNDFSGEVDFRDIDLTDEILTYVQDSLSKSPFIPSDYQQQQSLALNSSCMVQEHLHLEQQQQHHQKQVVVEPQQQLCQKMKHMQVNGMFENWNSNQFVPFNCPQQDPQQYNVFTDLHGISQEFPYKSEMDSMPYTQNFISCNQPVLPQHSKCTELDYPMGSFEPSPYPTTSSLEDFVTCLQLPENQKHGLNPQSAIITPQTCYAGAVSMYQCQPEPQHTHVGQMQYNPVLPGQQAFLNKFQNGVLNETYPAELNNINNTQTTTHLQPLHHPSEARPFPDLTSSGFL

Fibrinogen beta chain [9] = target: T3, Fibrinogen beta chain (Homo sapiens, UniProt P02675); assay: Fluorescence polarization-based biochemical high throughput dose response assay to identify inhibitors that disrupt the binding of a cyclic peptide (Tn6) to the fibrin proteolytic product D-Dimer and fragment E complex [DD(E )].
Fibrinogen beta chain [10] = target: T3, Fibrinogen beta chain; assay: Fluorescence polarization-based biochemical high throughput dose response assay to identify inhibitors that disrupt the binding of a cyclic peptide (Tn7) to the fibrin proteolytic product D-Dimer and fragment E complex [DD(E )].
Transthyretin = Transthyretin (Homo sapiens, UniProt P02766); assay: Luminescence-based cell-based high throughput dose response assay to identify activators of Transthyretin (TTR) transcription.; type: functional
[11] = target: Sphingosine 1-phosphate receptor 2 (Homo sapiens, UniProt O95136); assay: Dose Response Cell Based Assay for Agonists of the S1P2 Receptor. [Related pubchem assays: 729, 736, 843 ]; type: functional
Ephrin type-A receptor 4 = Ephrin type-A receptor 4 (Mus musculus, UniProt Q03137); assay: EphA4 ligand-binding antagonists – biochemical, colorimetric, mouse EphA4, primary screen (AID 689); type: functional
[12] = target: Tyrosine-protein phosphatase non-receptor type 22 (Homo sapiens, UniProt Q9Y2R2); assay: lymphoid phosphatase LYP inhibitors – biochemical, selectivity assay for STEP inhibitor project, dose response (AID 624241); type: functional
[13] = target: Dual specificity protein phosphatase 3 (Homo sapiens, UniProt P51452); assay: VHR phosphatase inhibition, dose response, selectivity assay for STEP inhibitor project, biochemical (AID 602374); type: functional; conditions: read-out: IC50_Mean
[14] = target: T4, Tyrosine-protein phosphatase non-receptor type 5 (Homo sapiens, UniProt P54829); assay: PTPN5 enzyme inhibition – biochemical, fluorescence intensity, uHTS hits, confirmation (AID 602372); type: functional; conditions: read-out: IC50_Mean
T4 sequence (P54829 whole entry): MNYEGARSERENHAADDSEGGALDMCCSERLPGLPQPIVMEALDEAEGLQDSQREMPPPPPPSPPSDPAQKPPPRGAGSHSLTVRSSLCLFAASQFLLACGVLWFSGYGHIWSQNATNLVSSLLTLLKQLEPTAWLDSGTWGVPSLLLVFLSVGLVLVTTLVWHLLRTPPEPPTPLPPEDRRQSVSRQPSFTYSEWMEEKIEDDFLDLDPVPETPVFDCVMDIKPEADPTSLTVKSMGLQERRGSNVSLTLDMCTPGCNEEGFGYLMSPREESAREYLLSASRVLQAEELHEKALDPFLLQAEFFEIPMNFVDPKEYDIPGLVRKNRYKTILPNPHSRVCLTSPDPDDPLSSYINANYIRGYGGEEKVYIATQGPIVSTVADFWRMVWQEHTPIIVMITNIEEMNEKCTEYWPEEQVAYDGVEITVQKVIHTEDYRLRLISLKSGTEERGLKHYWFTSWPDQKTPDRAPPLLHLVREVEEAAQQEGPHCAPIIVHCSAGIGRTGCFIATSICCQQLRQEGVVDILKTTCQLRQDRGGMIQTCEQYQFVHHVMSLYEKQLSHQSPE

[15] = target: T5, Tyrosine-protein phosphatase non-receptor type 11 (Homo sapiens, UniProt Q06124); assay: PTPN11 enzyme inhibitors – biochemical, selectivity assay for STEP inhibitor project, dose response (AID 602367); type: functional; conditions: read-out: IC50_Mean
T5 sequence (Q06124 whole entry): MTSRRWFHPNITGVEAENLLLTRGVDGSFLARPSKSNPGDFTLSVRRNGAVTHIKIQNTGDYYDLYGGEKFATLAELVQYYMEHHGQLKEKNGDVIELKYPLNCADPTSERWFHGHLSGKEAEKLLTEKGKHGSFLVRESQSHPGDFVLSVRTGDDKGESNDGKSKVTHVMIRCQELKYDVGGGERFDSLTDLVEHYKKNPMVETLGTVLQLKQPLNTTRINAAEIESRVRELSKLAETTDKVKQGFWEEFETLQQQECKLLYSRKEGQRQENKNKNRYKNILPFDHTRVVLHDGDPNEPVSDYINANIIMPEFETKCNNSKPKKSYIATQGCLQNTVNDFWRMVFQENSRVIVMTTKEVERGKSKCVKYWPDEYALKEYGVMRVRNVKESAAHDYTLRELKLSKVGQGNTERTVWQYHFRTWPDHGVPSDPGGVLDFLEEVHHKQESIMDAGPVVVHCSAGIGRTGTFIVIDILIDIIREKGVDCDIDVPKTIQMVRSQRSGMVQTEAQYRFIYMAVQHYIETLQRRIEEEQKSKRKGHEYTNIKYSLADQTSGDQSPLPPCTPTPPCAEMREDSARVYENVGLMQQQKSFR

[16] = microbe, parasite or virus in culture; type: functional; conditions: Mycobacterium tuberculosis
[17] = viability of uninfected HEp-2 cells – cell-based, HTS, cytotoxicity control for RSV inhibitor project, dose response (AID 2410); type: functional; conditions: human respiratory syncytial virus
[18] = M. tuberculosis growth inhibition, HTS (AID 449762); type: functional
[19] = viability loss in THP-1 monocytes – THP-1 cells, cytotoxicity control for Vif-APOBEC3G degradation inhibitor project, dose response (AID 1117359); type: functional; conditions: THP-1
[20] = OVCAR4 cell viability loss – plate reader, dry powder, SA11, cytotoxicity control for PAX8 inhibitor project, dose response (AID 743150); type: functional, cell-based; conditions: OVCAR-4
[21] = COV362 cell viability loss – plate reader, dry powder, SA12, cytotoxicity control for PAX8 inhibitor project, dose response (AID 743144); type: functional, cell-based
[22] = COV434 cell viability loss – plate reader, dry powder, SA7, cytotoxicity control for PAX8 inhibitor project, dose response (AID 743145); type: functional, cell-based
[23] = inhibitors acting on PAX2 in cells – cell-based, plate reader, dry powder samples, selectivity assay for PAX8 inhibitor project, dose response (AID 743048); type: functional;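 further: HEK293 cells carrying a WT1 promoter luciferase reporter driven by expressed Pax2; potency is for inhibition of Pax2 driven reporter signal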
[24] = OV-90 cell viability loss – plate reader, dry powder, SA8, PAX8 inhibitor project, dose response (AID 743149); type: functional, cell-based
[25] = PAX8-dependent cell viability loss – plate reader, dry powder, dose response (AID 743049); type: functional, cell-based
[26] = OVCAR-3 cell viability loss – plate reader, dry powder samples, PAX8 inhibitor project, dose response (AID 743044); type: functional, cell-based
Paired box protein Pax-8 = Paired box protein Pax-8 (Homo sapiens, UniProt Q06710); assay: PAX8 transcriptional activity inhibition in RMG-I – RMG-I cells, luciferase, cherry-pick, dose response (AID 687027); type: functional, cell-based;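 further: luciferase reporter driven by Pax8 target thyroperoxidase promoter measured by SteadyGlo luminescence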
[27] = PAX5 cellular inhibition readout – cell-based, plate reader, dry powder samples, selectivity assay for PAX8 inhibitor project, dose response (AID 743047); type: functional;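 further: HEK293 cells carrying a Pax5 driven CD19 promoter luciferase reporter; potency of inhibitors that lower reporter luminescence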

T3 sequence (P02675 whole entry, the tested form may be a part): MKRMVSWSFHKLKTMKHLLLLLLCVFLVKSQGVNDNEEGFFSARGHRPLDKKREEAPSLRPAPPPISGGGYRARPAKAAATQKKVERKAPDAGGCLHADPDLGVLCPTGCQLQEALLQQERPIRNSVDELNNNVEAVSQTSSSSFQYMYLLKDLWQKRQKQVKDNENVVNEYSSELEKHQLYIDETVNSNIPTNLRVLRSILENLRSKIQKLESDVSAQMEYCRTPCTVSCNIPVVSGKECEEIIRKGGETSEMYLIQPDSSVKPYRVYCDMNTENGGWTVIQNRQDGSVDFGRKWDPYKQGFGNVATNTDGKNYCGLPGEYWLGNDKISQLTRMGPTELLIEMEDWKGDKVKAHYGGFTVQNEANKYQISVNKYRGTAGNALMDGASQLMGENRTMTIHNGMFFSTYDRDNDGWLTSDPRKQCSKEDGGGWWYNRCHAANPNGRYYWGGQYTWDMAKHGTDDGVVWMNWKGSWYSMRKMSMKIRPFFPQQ
Tyrosine-protein phosphatase non-receptor type 22, sequence (Q9Y2R2 whole entry): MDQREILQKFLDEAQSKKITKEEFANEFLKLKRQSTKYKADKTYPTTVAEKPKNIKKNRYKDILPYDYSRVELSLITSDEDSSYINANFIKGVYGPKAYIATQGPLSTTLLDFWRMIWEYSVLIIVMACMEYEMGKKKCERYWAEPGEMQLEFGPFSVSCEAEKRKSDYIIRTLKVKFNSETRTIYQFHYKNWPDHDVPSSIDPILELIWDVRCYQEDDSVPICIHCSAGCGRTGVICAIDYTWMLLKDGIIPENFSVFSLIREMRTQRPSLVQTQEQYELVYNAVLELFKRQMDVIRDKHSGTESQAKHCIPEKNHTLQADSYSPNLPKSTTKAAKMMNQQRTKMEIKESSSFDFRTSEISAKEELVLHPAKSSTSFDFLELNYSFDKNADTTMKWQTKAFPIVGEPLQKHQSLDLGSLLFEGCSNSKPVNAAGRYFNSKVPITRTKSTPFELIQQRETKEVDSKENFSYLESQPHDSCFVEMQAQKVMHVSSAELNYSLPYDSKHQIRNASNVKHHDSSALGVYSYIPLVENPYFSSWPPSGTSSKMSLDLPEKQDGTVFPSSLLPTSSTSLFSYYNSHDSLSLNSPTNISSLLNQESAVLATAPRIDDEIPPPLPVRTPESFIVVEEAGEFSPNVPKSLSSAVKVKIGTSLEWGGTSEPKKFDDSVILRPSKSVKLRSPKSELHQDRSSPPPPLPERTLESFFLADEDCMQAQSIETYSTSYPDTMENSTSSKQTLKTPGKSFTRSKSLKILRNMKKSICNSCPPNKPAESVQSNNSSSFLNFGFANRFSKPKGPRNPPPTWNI
Phospholipase D1, sequence (Q13393 whole entry): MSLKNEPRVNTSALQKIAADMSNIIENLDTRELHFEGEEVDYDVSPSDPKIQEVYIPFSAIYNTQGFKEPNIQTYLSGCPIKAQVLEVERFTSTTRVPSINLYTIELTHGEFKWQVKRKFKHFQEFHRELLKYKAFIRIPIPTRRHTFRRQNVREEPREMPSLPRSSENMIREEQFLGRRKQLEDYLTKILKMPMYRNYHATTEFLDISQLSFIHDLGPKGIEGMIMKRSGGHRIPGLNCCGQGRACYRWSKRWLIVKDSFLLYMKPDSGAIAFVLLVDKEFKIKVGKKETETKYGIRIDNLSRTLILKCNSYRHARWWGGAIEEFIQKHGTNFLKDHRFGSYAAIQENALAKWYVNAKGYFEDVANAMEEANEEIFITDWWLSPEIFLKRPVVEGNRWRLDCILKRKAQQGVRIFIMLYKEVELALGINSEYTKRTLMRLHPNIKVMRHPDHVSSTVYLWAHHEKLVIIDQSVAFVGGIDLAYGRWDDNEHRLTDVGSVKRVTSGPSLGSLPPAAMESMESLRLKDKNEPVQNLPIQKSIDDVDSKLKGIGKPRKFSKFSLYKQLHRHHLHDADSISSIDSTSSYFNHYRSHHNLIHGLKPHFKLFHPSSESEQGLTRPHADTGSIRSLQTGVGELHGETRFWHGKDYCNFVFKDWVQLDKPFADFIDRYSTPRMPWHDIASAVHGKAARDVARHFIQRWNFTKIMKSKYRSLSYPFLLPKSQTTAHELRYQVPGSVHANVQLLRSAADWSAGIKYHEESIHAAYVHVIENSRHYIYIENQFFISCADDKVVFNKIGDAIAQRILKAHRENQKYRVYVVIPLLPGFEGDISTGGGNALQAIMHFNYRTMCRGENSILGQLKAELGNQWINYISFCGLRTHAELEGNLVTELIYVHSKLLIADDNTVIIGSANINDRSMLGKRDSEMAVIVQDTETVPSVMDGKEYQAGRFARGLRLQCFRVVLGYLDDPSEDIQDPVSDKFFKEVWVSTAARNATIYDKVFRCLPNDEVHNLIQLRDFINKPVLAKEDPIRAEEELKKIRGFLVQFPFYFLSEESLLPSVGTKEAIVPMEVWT
Paired box protein Pax-8, sequence (Q06710 whole entry): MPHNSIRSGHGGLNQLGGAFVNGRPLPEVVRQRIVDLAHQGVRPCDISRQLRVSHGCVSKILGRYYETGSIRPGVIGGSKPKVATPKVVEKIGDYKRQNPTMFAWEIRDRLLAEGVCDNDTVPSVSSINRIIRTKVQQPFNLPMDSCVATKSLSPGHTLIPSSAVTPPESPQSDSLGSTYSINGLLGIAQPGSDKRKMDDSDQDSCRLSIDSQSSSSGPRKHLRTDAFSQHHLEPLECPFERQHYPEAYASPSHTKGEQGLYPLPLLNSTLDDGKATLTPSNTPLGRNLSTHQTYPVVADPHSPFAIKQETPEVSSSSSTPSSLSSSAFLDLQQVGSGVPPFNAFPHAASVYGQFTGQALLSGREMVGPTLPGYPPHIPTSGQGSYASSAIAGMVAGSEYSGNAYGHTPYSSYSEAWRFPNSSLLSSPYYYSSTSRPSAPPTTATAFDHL
Phospholipase D2, sequence (O14939 whole entry): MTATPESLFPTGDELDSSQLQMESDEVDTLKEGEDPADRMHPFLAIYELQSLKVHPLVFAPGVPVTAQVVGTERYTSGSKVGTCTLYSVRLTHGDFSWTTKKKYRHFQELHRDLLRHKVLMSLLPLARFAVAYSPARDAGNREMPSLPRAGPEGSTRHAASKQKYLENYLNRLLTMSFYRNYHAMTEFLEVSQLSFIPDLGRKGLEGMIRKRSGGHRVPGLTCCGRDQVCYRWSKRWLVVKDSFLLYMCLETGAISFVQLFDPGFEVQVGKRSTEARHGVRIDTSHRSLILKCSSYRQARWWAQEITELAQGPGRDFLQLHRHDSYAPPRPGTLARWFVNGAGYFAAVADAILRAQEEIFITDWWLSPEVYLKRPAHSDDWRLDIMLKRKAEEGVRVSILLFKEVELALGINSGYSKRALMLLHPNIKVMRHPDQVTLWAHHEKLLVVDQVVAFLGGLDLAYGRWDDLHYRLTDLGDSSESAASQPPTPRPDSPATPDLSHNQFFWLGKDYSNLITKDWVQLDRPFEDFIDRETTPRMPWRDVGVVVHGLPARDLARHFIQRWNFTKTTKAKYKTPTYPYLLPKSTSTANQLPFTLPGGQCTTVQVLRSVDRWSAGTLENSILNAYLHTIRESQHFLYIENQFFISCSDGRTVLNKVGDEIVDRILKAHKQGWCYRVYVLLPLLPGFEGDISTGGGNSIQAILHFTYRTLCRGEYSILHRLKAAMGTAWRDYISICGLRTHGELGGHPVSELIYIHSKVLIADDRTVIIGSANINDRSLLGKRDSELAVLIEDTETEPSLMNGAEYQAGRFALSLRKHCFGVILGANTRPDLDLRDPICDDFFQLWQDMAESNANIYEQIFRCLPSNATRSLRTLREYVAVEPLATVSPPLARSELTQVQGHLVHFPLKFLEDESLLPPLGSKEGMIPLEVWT
Sphingosine 1-phosphate receptor 2, sequence (O95136 whole entry): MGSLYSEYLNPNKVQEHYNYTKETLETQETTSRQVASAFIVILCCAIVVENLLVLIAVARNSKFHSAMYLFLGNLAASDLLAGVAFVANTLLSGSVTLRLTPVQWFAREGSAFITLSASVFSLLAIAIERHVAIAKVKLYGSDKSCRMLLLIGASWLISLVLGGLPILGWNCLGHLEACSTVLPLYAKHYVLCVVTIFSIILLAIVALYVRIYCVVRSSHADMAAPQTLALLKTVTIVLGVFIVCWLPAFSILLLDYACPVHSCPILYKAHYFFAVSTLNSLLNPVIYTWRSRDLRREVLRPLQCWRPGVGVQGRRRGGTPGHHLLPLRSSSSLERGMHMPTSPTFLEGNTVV
Ubiquitin carboxyl-terminal hydrolase BAP1, sequence (Q92560 whole entry): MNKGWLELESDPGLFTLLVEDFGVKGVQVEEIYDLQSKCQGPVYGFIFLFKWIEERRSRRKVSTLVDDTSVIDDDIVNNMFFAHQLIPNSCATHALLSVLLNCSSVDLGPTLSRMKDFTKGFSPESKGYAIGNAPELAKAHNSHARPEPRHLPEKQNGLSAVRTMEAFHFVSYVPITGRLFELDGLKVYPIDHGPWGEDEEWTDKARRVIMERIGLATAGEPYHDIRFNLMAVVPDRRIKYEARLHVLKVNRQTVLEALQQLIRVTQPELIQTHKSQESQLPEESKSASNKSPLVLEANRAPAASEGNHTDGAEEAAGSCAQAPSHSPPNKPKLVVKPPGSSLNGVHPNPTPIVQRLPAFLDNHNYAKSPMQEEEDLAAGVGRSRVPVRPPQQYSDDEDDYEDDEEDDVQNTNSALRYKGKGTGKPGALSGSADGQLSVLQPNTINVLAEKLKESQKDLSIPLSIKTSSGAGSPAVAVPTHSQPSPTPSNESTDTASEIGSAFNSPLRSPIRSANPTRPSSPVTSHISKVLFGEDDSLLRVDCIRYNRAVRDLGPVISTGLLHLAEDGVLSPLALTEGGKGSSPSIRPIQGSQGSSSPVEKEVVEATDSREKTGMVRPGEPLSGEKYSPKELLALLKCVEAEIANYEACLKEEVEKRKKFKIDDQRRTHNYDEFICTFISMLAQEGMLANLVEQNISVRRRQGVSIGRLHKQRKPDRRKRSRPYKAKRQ
Dual specificity protein phosphatase 3, sequence (P51452 whole entry): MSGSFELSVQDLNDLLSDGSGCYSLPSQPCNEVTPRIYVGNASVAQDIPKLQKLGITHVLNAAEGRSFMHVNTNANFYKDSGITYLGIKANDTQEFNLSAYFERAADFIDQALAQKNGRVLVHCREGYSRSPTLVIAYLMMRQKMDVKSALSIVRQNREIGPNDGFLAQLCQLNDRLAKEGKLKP

O=c1[nH]c(SCc2ccc(F)cc2)nc2c1cnn2-c1ccc(F)cc1
IC50 [1]: > 50 µM (not active)

Cc1noc(C)c1NC(=O)Nc1ccc2c(c1)C(=O)N([C@@H](C)CN(C)C)C[C@@H](C)[C@H](CN(C)S(=O)(=O)c1ccc(F)cc1)OCCCC[C@H](C)O2
AC50 [2]: 0.0289 µM (active)

O=C(NCCN1CCC2(CC1)C(=O)NCN2C(=O)C1CCC1)c1ccc2ccccc2c1
IC50 (Phospholipase D2): 0.32 µM (active)
IC50 (Phospholipase D1): 4 µM (active)

COc1cccc(CNCCc2c[nH]c3ccccc23)c1OCc1ccccc1
AC50 [3]: 4.09 µM (active)
AC50 (A-375): 36.2 µM (active)
AC50 [4]: 9.39 µM (active)
CC50 [5]: > 40 µM (active)
AC50 [6]: 11.8 µM (active)
AC50 [7]: 14.4 µM (active)

C#CCn1cc(/C=N/NC(=O)c2cc3ccccc3o2)c2ccccc21
EC50 [8]: 0.544 µM (active)
IC50 (Fibrinogen beta chain [9]): > 83.3 µM (inactive)
IC50 (Fibrinogen beta chain [10]): > 83.3 µM (inactive)

N=c1ccn(CC(=O)NC(N)=O)c2ccccc12
EC50 (Transthyretin): > 167 µM (inactive)

CC(C)CCNC(=O)c1c(N)n(Cc2ccc3c(c2)OCO3)c2nc3ccccc3nc12
EC50 [11]: 1.69 µM (active)

Cc1ccc(-n2c(C)nc3oc4ccccc4c(=O)c3c2=O)cc1
IC50 (Ephrin type-A receptor 4): > 100 µM (not active)
IC50 [12]: 14 µM (active)
IC50 [13]: 0.779 µM (active)
IC50 [14]: 14.4 µM (active)
IC50 [15]: 1.13 µM (active)

COC(=O)C1=C(C)NC(=O)/C1=C\c1cc(C)n(-c2cccc(C)c2)c1C
CC50 [16]: > 40 µM (active)
CC50 [17]: 16 µM (active)
IC50 [18]: > 100 µM (active)

CCCCCC(=O)N1C[C@@H](n2cc(C3CC3)nn2)[C@H](O)C[C@@H]1c1ccc(C)cc1
CC50 [19]: > 40 µM (active)

CC(C)CC1NC(=S)N(Cc2ccccc2)C1=O (stereo not drawn)
AC50 [20]: 15.9 µM (active)
AC50 [21]: 33.9 µM (active)
AC50 [22]: 18.8 µM (active)
AC50 [23]: 29.2 µM (active)
AC50 [24]: 21.4 µM (active)
AC50 [25]: 46.8 µM (active)
AC50 [26]: 94 µM (active)
AC50 (Paired box protein Pax-8): 6.46 µM (active)
AC50 [27]: 43 µM (active)
